Assay results published in patent US4126616A, “N-propylnorapomorphine diesters” (Hinshaw; William B., priority 1976, dated 1978).
Counter-ions that a name gives are not always drawn. Like-named read-outs stand apart in the source and are kept apart here.

Tested on: caudate lesioned mouse
Assay: caudate lesioned mouse test (anti-parkinson activity)
Assay type: in vivo
Details: for responders at 1.6 µmol/kg / responders at 3.2 µmol/kg / responders at 6 µmol/kg / responders at 26 µmol/kg / responders at 132 µmol/kg / responders at 208 µmol/kg / responders at 6.5 µmol/kg / responders at 130 µmol/kg / responders at 260 µmol/kg / responders at 416 µmol/kg: Mus musculus; for responders at 1.6 µmol/kg: dose 0.0016 m. mole/kg; for responders at 3.2 µmol/kg: dose 0.0032 m. mole/kg; for responders at 6 µmol/kg: dose 0.006 m. mole/kg; for responders at 26 µmol/kg: dose 0.026 m. mole/kg; for responders at 132 µmol/kg: dose 0.132 m. mole/kg; for Molar Potency Ratio Claimed/Ref. Ester: claimed N-propyl ester vs corresponding N-methyl reference ester
Method: An index of anti-parkinson activity was determined using the caudate lesioned mouse test described by Lotti, Life Sci., 10, 781-789 (1971). The mice having unilateral lesions of the caudate nucleus prepared according to the method of Lotti supra were observed immediately after the surgical procedure for strong postural asymmetries directed to the same side as the lesion. When this asymmetry was not observed, the mice were discarded. Operated mice were allowed at least 14 days to recover prior to drug testing. The lesioned mice were tested with apomorphine using 1.7 mg./kg. of base administered intraperitoneally in a 1% suspension in gum tragacanth. […] Only those mice which twisted or circled toward the lesioned side in all three test periods after the apomorphine injection were retained for further drug testing. The test drugs were all administered in 1% gum tragacanth suspension in a volume of 0.1 ml./10 g. of body weight. Doses were expressed in mg./kg. of free base.
Results of tests in the caudate lesioned mouse test described above which were obtained on the compounds of the invention are given in the table below identified, in each case, by the example numbers above where their preparations are described. Corresponding data for reference apomorphine diesters described in German patent application No. 2,154,162 are given in a side-by-side relationship for a number of the species. The reference compounds, designated Ref. 1, Ref. 1B, Ref. 1C, Ref. 1D, Ref. 1E, Ref. 1F, Ref. 2 and Ref. 2A correspond, respectively, to the compounds of the invention identified by Examples 1, 1B, 1C, 1D, 1E, 1F, 2 and 2A and differ from the latter only in having a methyl group on the apomorphine nitrogen from instead of an n-propyl group as present in the instant compounds.

[1] = 0.5 h, 1/2 h post-drug, read-out: No. Mice Affected/No. Mice Tested, 1/2 h
[2] = 0.5 h, 1/2 h post-drug, read-out: No. Mice Affected/No. Mice Tested, 1/2 h (converted)
[3] = 1 h post-drug, read-out: No. Mice Affected/No. Mice Tested, 1 h
[4] = 6 h post-drug, read-out: No. Mice Affected/No. Mice Tested, 6 h
[5] = 24 h post-drug, read-out: No. Mice Affected/No. Mice Tested, 24 h
[6] = 1 h post-drug, read-out: No. Mice Affected/No. Mice Tested, 1 h (converted)
[7] = 2 h post-drug, read-out: No. Mice Affected/No. Mice Tested, 2 h (converted)
[8] = 4 h post-drug, read-out: No. Mice Affected/No. Mice Tested, 4 h (converted)
[9] = total, read-out: No. Mice Affected/No. Mice Tested, Total (converted)
[10] = 6 h post-drug, read-out: No. Mice Affected/No. Mice Tested, 6 h (converted)
[11] = 0.5 h, read-out: No. Mice Affected/No. Mice Tested, 1/2 h
[12] = 1 h, read-out: No. Mice Affected/No. Mice Tested, 1 h
[13] = 2 h, read-out: No. Mice Affected/No. Mice Tested, 2 h
[14] = 4 h, read-out: No. Mice Affected/No. Mice Tested, 4 h
[15] = 6 h, read-out: No. Mice Affected/No. Mice Tested, 6 h
[16] = read-out: No. Mice Affected/No. Mice Tested, Total
[17] = 24 h, read-out: No. Mice Affected/No. Mice Tested, 24 h

Question: Which responders at 1.6 µmol/kg [1] does the source give for `CCCN1CCc2cccc3c2C1Cc1ccc(OC(=O)c2cc(OC)cc(OC)c2)c(OC(=O)c2cc(OC)cc(OC)c2)c1-3` (stereo not shown) [Ex. 1K, N-Propylnorapomorphine bis-3,5-dimethoxybenzoate hydrochloride] here?
Answer: The responders at 1.6 µmol/kg was 0%.

Question: What about the responders at 3.2 µmol/kg [1] of the same molecule?
Answer: The responders at 3.2 µmol/kg was 0%.

Question: And the responders at 6 µmol/kg [1]?
Answer: Its responders at 6 µmol/kg is 0%.

Question: And the responders at 26 µmol/kg [2]?
Answer: Its responders at 26 µmol/kg is 50%.

Question: And the responders at 1.6 µmol/kg [3]?
Answer: The responders at 1.6 µmol/kg was 0%.

Question: And the responders at 1.6 µmol/kg (2 h post-drug, read-out: No. Mice Affected/No. Mice Tested, 2 h)?
Answer: Its responders at 1.6 µmol/kg is 0%.

Question: And the responders at 1.6 µmol/kg (4 h post-drug, read-out: No. Mice Affected/No. Mice Tested, 4 h)?
Answer: Its responders at 1.6 µmol/kg is 0%.

Question: What about the responders at 1.6 µmol/kg [4] of the same molecule?
Answer: Its responders at 1.6 µmol/kg is 0%.

Question: And the responders at 1.6 µmol/kg [5]?
Answer: Its responders at 1.6 µmol/kg is 0%.

Question: What about the responders at 1.6 µmol/kg (total, read-out: No. Mice Affected/No. Mice Tested, Total) of the same molecule?
Answer: Its responders at 1.6 µmol/kg is 0%.

Question: And the responders at 3.2 µmol/kg [6]?
Answer: Its responders at 3.2 µmol/kg is 25%.

Question: What about the responders at 3.2 µmol/kg [7] of the same molecule?
Answer: The responders at 3.2 µmol/kg was 50%.

Question: What about the responders at 3.2 µmol/kg [8] of the same molecule?
Answer: Its responders at 3.2 µmol/kg is 50%.

Question: What about the responders at 3.2 µmol/kg [4] of the same molecule?
Answer: Its responders at 3.2 µmol/kg is 0%.

Question: What about the responders at 3.2 µmol/kg [5] of the same molecule?
Answer: The responders at 3.2 µmol/kg was 0%.

Question: And the responders at 3.2 µmol/kg [9]?
Answer: The responders at 3.2 µmol/kg was 50%.

Question: And the responders at 6 µmol/kg [3]?
Answer: The responders at 6 µmol/kg was 0%.

Question: And the responders at 6 µmol/kg [7]?
Answer: The responders at 6 µmol/kg was 75%.

Question: And the responders at 6 µmol/kg [8]?
Answer: The responders at 6 µmol/kg was 75%.

Question: What about the responders at 6 µmol/kg [10] of the same molecule?
Answer: Its responders at 6 µmol/kg is 50%.

Question: What about the responders at 6 µmol/kg [5] of the same molecule?
Answer: The responders at 6 µmol/kg was 0%.

Question: And the responders at 6 µmol/kg [9]?
Answer: The responders at 6 µmol/kg was 75%.

Question: What about the responders at 26 µmol/kg [6] of the same molecule?
Answer: The responders at 26 µmol/kg was 100%.

Question: And the responders at 26 µmol/kg [7]?
Answer: The responders at 26 µmol/kg was 50%.

Question: And the responders at 26 µmol/kg [8]?
Answer: The responders at 26 µmol/kg was 50%.

Question: And the responders at 26 µmol/kg [10]?
Answer: Its responders at 26 µmol/kg is 50%.

Question: What about the responders at 26 µmol/kg [5] of the same molecule?
Answer: The responders at 26 µmol/kg was 0%.

Question: And the responders at 26 µmol/kg [9]?
Answer: Its responders at 26 µmol/kg is 100%.

Question: With `CCCN1CCc2cccc3c2C1Cc1ccc(OC(=O)c2ccc(Cl)cc2)c(OC(=O)c2ccc(Cl)cc2)c1-3` (stereo not shown) [Ex. 1F, N-Propylnorapomorphine bis-4-chlorobenzoate] as the molecule, how does the responders at 132 µmol/kg [2] read?
Answer: Its responders at 132 µmol/kg is 0%.

Question: And the responders at 208 µmol/kg (0.5 h, dose 0.208 m. mole/kg, 1/2 h post-drug, read-out: No. Mice Affected/No. Mice Tested, 1/2 h (converted))?
Answer: The responders at 208 µmol/kg was 33.3%.

Question: And the responders at 132 µmol/kg [6]?
Answer: Its responders at 132 µmol/kg is 25%.

Question: What about the responders at 132 µmol/kg [8] of the same molecule?
Answer: The responders at 132 µmol/kg was 0%.

Question: What about the responders at 132 µmol/kg [10] of the same molecule?
Answer: Its responders at 132 µmol/kg is 25%.

Question: And the responders at 132 µmol/kg (24 h post-drug, read-out: No. Mice Affected/No. Mice Tested, 24 h (converted))?
Answer: Its responders at 132 µmol/kg is 0%.

Question: And the responders at 132 µmol/kg [9]?
Answer: The responders at 132 µmol/kg was 25%.

Question: And the responders at 208 µmol/kg (dose 0.208 m. mole/kg, 1 h post-drug, read-out: No. Mice Affected/No. Mice Tested, 1 h)?
Answer: Its responders at 208 µmol/kg is 0%.

Question: And the responders at 208 µmol/kg (dose 0.208 m. mole/kg, 4 h post-drug, read-out: No. Mice Affected/No. Mice Tested, 4 h (converted))?
Answer: Its responders at 208 µmol/kg is 66.7%.

Question: And the responders at 208 µmol/kg (dose 0.208 m. mole/kg, 6 h post-drug, read-out: No. Mice Affected/No. Mice Tested, 6 h (converted))?
Answer: Its responders at 208 µmol/kg is 100%.

Question: And the responders at 208 µmol/kg (dose 0.208 m. mole/kg, 24 h post-drug, read-out: No. Mice Affected/No. Mice Tested, 24 h (converted))?
Answer: Its responders at 208 µmol/kg is 33.3%.

Question: What about the responders at 208 µmol/kg (dose 0.208 m. mole/kg, total, read-out: No. Mice Affected/No. Mice Tested, Total (converted)) of the same molecule?
Answer: Its responders at 208 µmol/kg is 100%.

Question: And the “Molar Potency Ratio Claimed/Ref. Ester” value?
Answer: The value was ≥ 3.

Question: How did the ED50 (ED50, caudate lesioned mouse) turn out when `CCCN1CCc2cccc3c2C1Cc1ccc(OC(=O)CC)c(OC(=O)CC)c1-3` (stereo not shown) [Ex. 1 (HCl), N-propylnorapomorphine dipropionate] was run?
Answer: Its ED50 is 0.0094 m. mole/kg.

Question: What about the responders at 6.5 µmol/kg [11] of the same molecule?
Answer: Its responders at 6.5 µmol/kg is 25%.

Question: And the responders at 130 µmol/kg [11]?
Answer: Its responders at 130 µmol/kg is 75%.

Question: And the responders at 260 µmol/kg [11]?
Answer: Its responders at 260 µmol/kg is 100%.

Question: What about the responders at 6.5 µmol/kg [12] of the same molecule?
Answer: The responders at 6.5 µmol/kg was 25%.

Question: And the responders at 130 µmol/kg [12]?
Answer: The responders at 130 µmol/kg was 50%.

Question: And the responders at 260 µmol/kg [12]?
Answer: The responders at 260 µmol/kg was 100%.

Question: And the responders at 6.5 µmol/kg [13]?
Answer: The responders at 6.5 µmol/kg was 0%.

Question: And the responders at 130 µmol/kg [13]?
Answer: Its responders at 130 µmol/kg is 0%.

Question: And the responders at 260 µmol/kg [13]?
Answer: The responders at 260 µmol/kg was 100%.

Question: What about the responders at 6.5 µmol/kg [14] of the same molecule?
Answer: The responders at 6.5 µmol/kg was 0%.

Question: What about the responders at 130 µmol/kg [14] of the same molecule?
Answer: The responders at 130 µmol/kg was 0%.

Question: What about the responders at 260 µmol/kg [14] of the same molecule?
Answer: The responders at 260 µmol/kg was 100%.

Question: What about the responders at 6.5 µmol/kg [15] of the same molecule?
Answer: Its responders at 6.5 µmol/kg is 0%.

Question: And the responders at 130 µmol/kg [15]?
Answer: The responders at 130 µmol/kg was 0%.

Question: What about the responders at 260 µmol/kg [15] of the same molecule?
Answer: Its responders at 260 µmol/kg is 100%.

Question: What about the responders at 6.5 µmol/kg [16] of the same molecule?
Answer: The responders at 6.5 µmol/kg was 25%.

Question: And the responders at 130 µmol/kg [16]?
Answer: Its responders at 130 µmol/kg is 75%.

Question: What about the responders at 260 µmol/kg [16] of the same molecule?
Answer: The responders at 260 µmol/kg was 100%.

Question: What about the “Molar Potency Ratio Claimed/Ref. Ester” value of the same molecule?
Answer: The value was 10.

Question: What does the source list for `CC(=O)Oc1ccc2c(c1OC(C)=O)-c1cccc3c1C(C2)N(C)CC3` (stereo not shown) [Ref. 2, reference compound]?
Answer: responders at 208 µmol/kg [11]: 0%; responders at 416 µmol/kg [11]: 25%; responders at 208 µmol/kg [12]: 0%; responders at 416 µmol/kg [12]: 50%; responders at 208 µmol/kg [14]: 0%; responders at 416 µmol/kg [14]: 75%; responders at 208 µmol/kg [15]: 0%; responders at 416 µmol/kg [15]: 75%; responders at 208 µmol/kg [17]: 25%; responders at 416 µmol/kg [17]: 25%; responders at 208 µmol/kg [16]: 25%; responders at 416 µmol/kg [16]: 75%
